Experimental data taken from ChEMBL document CHEMBL2413072, “Synthesis and in vitro anticancer studies of novel C-2 arylidene congeners of lantadenes” (2013).
Calls of active or inactive are those of the source. No cut-off for these calls is given here.

How the values were obtained:
Type in all cases: functional
HCT-15 [1] = assay: Growth inhibition of human HCT15 cells assessed as growth inhibition at 10 uM by sulforhodamine B assay; details: read-out: GI
[2] = Growth inhibition of human EKVX cells assessed as cell growth at 10 uM by sulforhodamine B assay; details: read-out: Activity
OVCAR-5 = assay: Growth inhibition of human OVCAR5 cells assessed as growth inhibition at 10 uM by sulforhodamine B assay; details: read-out: GI
SK-MEL-5 = assay: Growth inhibition of human SK-MEL-5 cells assessed as growth inhibition at 10 uM by sulforhodamine B assay; details: read-out: GI
HT-29 = assay: Growth inhibition of human HT-29 cells assessed as cell growth at 10 uM by sulforhodamine B assay; details: read-out: Activity
SNB-19 [3] = assay: Growth inhibition of human SNB19 cells assessed as cell growth at 10 uM by sulforhodamine B assay; details: read-out: Activity
ACHN = assay: Growth inhibition of human ACHN cells assessed as growth inhibition at 10 uM by sulforhodamine B assay; details: read-out: GI
786-0 = assay: Growth inhibition of human 786-0 cells assessed as cell growth at 10 uM by sulforhodamine B assay; details: read-out: Activity
SK-MEL-2 [4] = assay: Growth inhibition of human SK-MEL-2 cells assessed as growth inhibition at 10 uM by sulforhodamine B assay; details: read-out: GI
[5] = Growth inhibition of human Hs 578T cells assessed as growth inhibition at 10 uM by sulforhodamine B assay; details: read-out: GI
UO-31 = assay: Growth inhibition of human UO31 cells assessed as cell growth at 10 uM by sulforhodamine B assay; details: read-out: Activity
T47D [6] = assay: Growth inhibition of human T47D cells assessed as growth inhibition at 10 uM by sulforhodamine B assay; details: read-out: GI
[7] = Growth inhibition of human NCI-ADR-RES cells assessed as growth inhibition at 10 uM by sulforhodamine B assay; details: read-out: GI
COLO 205 [8] = assay: Growth inhibition of human COLO205 cells assessed as cell growth at 10 uM by sulforhodamine B assay; details: read-out: Activity
TK-10 = assay: Growth inhibition of human TK10 cells assessed as cell growth at 10 uM by sulforhodamine B assay; details: read-out: Activity
OVCAR-8 [9] = assay: Growth inhibition of human OVCAR8 cells assessed as growth inhibition at 10 uM by sulforhodamine B assay; details: read-out: GI
SW-620 = assay: Growth inhibition of human SW620 cells assessed as cell growth at 10 uM by sulforhodamine B assay; details: read-out: Activity
A498 = assay: Growth inhibition of human A498 cells assessed as cell growth at 10 uM by sulforhodamine B assay; details: read-out: Activity
K562 = assay: Growth inhibition of human K562 cells assessed as cell growth at 10 uM by sulforhodamine B assay; details: read-out: Activity
SNB-19 [10] = assay: Growth inhibition of human SNB19 cells assessed as growth inhibition at 10 uM by sulforhodamine B assay
SK-OV-3 = assay: Growth inhibition of human SKOV3 cells assessed as cell growth at 10 uM by sulforhodamine B assay; details: read-out: Activity
DU-145 = assay: Growth inhibition of human DU145 cells assessed as cell growth at 10 uM by sulforhodamine B assay; details: read-out: Activity
KM12 [11] = assay: Growth inhibition of human KM12 cells assessed as growth inhibition at 10 uM by sulforhodamine B assay; details: read-out: GI
SNB-19 [12] = assay: Growth inhibition of human SNB19 cells assessed as cell growth at 10^-6 M by sulforhodamine B assay; details: read-out: Activity
COLO 205 [13] = assay: Growth inhibition of human COLO205 cells assessed as cell growth at 10^-4 M by sulforhodamine B assay; details: read-out: Activity
LOX IMVI = assay: Growth inhibition of human LOXIMVI cells assessed as cell growth at 10^-4 M by sulforhodamine B assay; details: read-out: Activity
T47D [14] = assay: Growth inhibition of human T47D cells assessed as cell growth at 10^-4 M by sulforhodamine B assay; details: read-out: Activity
NCI-H322M = assay: Growth inhibition of human NCI-H322M cells assessed as cell growth at 10^-7 M by sulforhodamine B assay; details: read-out: Activity
OVCAR-4 = assay: Growth inhibition of human OVCAR4 cells assessed as cell growth at 10^-7 M by sulforhodamine B assay; details: read-out: Activity
T47D [15] = assay: Growth inhibition of human T47D cells assessed as cell growth at 10^-6 M by sulforhodamine B assay; details: read-out: Activity
UACC-257 = assay: Growth inhibition of human UACC257 cells assessed as cell growth at 10^-4 M by sulforhodamine B assay; details: read-out: Activity
HCT-15 [16] = assay: Growth inhibition of human HCT15 cells assessed as cell growth at 10^-6 M by sulforhodamine B assay; details: read-out: Activity
SF-295 = assay: Growth inhibition of human SF295 cells assessed as cell growth at 10^-6 M by sulforhodamine B assay; details: read-out: Activity
KM12 [17] = assay: Growth inhibition of human KM12 cells assessed as cell growth at 10^-4 M by sulforhodamine B assay; details: read-out: Activity
NCI-H226 = assay: Growth inhibition of human NCI-H226 cells assessed as cell growth at 10^-7 M by sulforhodamine B assay; details: read-out: Activity
SR = assay: Growth inhibition of human SR cells assessed as cell growth at 10^-7 M by sulforhodamine B assay; details: read-out: Activity
OVCAR-8 [18] = assay: Growth inhibition of human OVCAR8 cells assessed as cell growth at 10^-8 M by sulforhodamine B assay; details: read-out: Activity
HOP-62 [19] = assay: Growth inhibition of human HOP62 cells assessed as cell growth at 10^-4 M by sulforhodamine B assay; details: read-out: Activity
BT-549 [20] = assay: Growth inhibition of human BT549 cells assessed as cell growth at 10^-7 M by sulforhodamine B assay; details: read-out: Activity
HCT-15 [21] = assay: Growth inhibition of human HCT15 cells by sulforhodamine B assay
RPMI-8226 = assay: Growth inhibition of human RPMI8226 cells assessed as cell growth at 10^-7 M by sulforhodamine B assay; details: read-out: Activity
HCT-15 [22] = assay: Growth inhibition of human HCT15 cells assessed as cell growth at 10^-7 M by sulforhodamine B assay; details: read-out: Activity
PC-3 = assay: Growth inhibition of human PC3 cells assessed as cell growth at 10^-7 M by sulforhodamine B assay; details: read-out: Activity
BT-549 [23] = assay: Growth inhibition of human BT549 cells by sulforhodamine B assay
HOP-62 [24] = assay: Growth inhibition of human HOP62 cells assessed as cell growth at 10^-8 M by sulforhodamine B assay; details: read-out: Activity
SK-MEL-2 [25] = assay: Growth inhibition of human SK-MEL-2 cells by sulforhodamine B assay
[26] = read-out: LC50 (the source's name)
[27] = read-out: pLC50 (the source's name) (converted)

`CC1(C)C[C@@H](O)[C@]2(C(=O)O)CC[C@]3(C)C(=CC[C@@H]4[C@@]5(C)CCC(=O)C(C)(C)[C@@H]5CC[C@]43C)[C@@H]2C1` showed an inhibition of growth at 10 µM (HCT-15 [1]) of 24.6%, a growth at 10 µM [2] of 99.2% and an inhibition of growth at 10 µM (OVCAR-5) of under 10%. It also gave an inhibition of growth at 10 µM (SK-MEL-5) of 12.2%, a growth at 10 µM (HT-29) of 83.2% and a growth at 10 µM (SNB-19 [3]) of 94.2%. The inhibition of growth at 10 µM (ACHN) was under 10%, the growth at 10 µM (786-0) was 86.2% and the inhibition of growth at 10 µM (SK-MEL-2 [4]) was under 10%. The inhibition of growth at 10 µM [5] was under 10%, the growth at 10 µM (UO-31) was 86.1% and the inhibition of growth at 10 µM (T47D [6]) was 19.2%. For the same compound, the inhibition of growth at 10 µM [7] was under 10%, the growth at 10 µM (COLO 205 [8]) was 101% and the growth at 10 µM (TK-10) was 106%. For the same compound, the inhibition of growth at 10 µM (OVCAR-8 [9]) was 19.2%, the growth at 10 µM (SW-620) was 104% and the growth at 10 µM (A498) was 91.2%. The growth at 10 µM (K562) was 76.8%, the inhibition of growth at 10 µM (SNB-19 [10]; read-out: GI) was under 10% and the growth at 10 µM (SK-OV-3) was 102%. The growth at 10 µM (DU-145) was 113% and the inhibition of growth at 10 µM (KM12 [11]) was 12.3%.
Compound `C/C=C(/C)C(=O)O[C@@H]1CC(C)(C)C[C@H]2C3=CC[C@@H]4[C@@]5(C)CC[C@H](O)C(C)(C)[C@@H]5CC[C@@]4(C)[C@]3(C)CC[C@@]12C(=O)O` [Reduced Lantadene A] has a growth at 1 µM (SNB-19 [12]) of 85%, an inhibition of growth at 10 µM (HCT-15 [1]) of 78.8% and a growth at 100 µM (COLO 205 [13]) of 3%. The growth at 10 µM [2] was 36.5%, the inhibition of growth at 10 µM (OVCAR-5) was 36% and the growth at 100 µM (LOX IMVI) was -62%. For the same compound, the inhibition of growth at 10 µM (SK-MEL-5) was 46.8%, the growth at 10 µM (HT-29) was 55.8% and the growth at 10 µM (SNB-19 [3]) was -53%. The inhibition of growth at 10 µM (ACHN) was 91.9%, the growth at 100 µM (T47D [14]) was -36% and the growth at 0.1 µM (NCI-H322M) was 98%. It also gave a growth at 0.1 µM (OVCAR-4) of 99%, a growth at 1 µM (T47D [15]) of 96% and a growth at 100 µM (UACC-257) of -69%. The growth at 1 µM (HCT-15 [16]) was 82%, the growth at 1 µM (SF-295) was 81% and the growth at 10 µM (786-0) was -42.9%. The inhibition of growth at 10 µM (SK-MEL-2 [4]) was 45.9%, the growth at 100 µM (KM12 [17]) was -29% and the growth at 0.1 µM (NCI-H226) was 94%. For the same compound, the growth at 10 µM (UO-31) was -26%, the inhibition of growth at 10 µM (T47D [6]) was 24.3% and the growth at 0.1 µM (SR) was 81%. For the same compound, the growth at 0.01 µM (OVCAR-8 [18]) was 98%, the growth at 100 µM (HOP-62 [19]) was -37% and the inhibition of growth at 10 µM [7] was 30.2%. The growth at 0.1 µM (BT-549 [20]) was 100%, the growth at 10 µM (COLO 205 [8]) was 28.2% and the growth at 10 µM (TK-10) was 66.8%. The inhibition of growth at 10 µM (OVCAR-8 [9]) was 42.3%, the growth at 10 µM (SW-620) was 39.1% and the GI50 (HCT-15 [21]; read-out: GI50) was 2.58 µM. The LC50 (50% lethal concentration) (HCT-15 [21]; read-out: LC50) was 62.6 µM, the TGI (HCT-15 [21]; read-out: TGI) was 11.5 µM and the GI50 (HCT-15 [21]; read-out: pGI50 (converted)) was 2.57 µM. For the same compound, the LC50 (50% lethal concentration) (HCT-15 [21]; read-out: pLC50 (converted)) was 63.1 µM, the TGI (HCT-15 [21]; read-out: pTGI (converted)) was 11.5 µM and the growth at 10 µM (A498) was -31.8%. For the same compound, the growth at 10 µM (K562) was 35.9%, the growth at 0.1 µM (RPMI-8226) was 92% and the “growth inhibition (GI)” value (SNB-19 [10]) was “Active”. It also gave a growth at 10 µM (SK-OV-3) of 41.8%, a growth at 10 µM (DU-145) of 74.9% and a growth at 0.1 µM (HCT-15 [22]) of 101%. For the same compound, the growth at 0.1 µM (PC-3) was 88%, the inhibition of growth at 10 µM (KM12 [11]) was 78.3% and the GI50 (BT-549 [23]; read-out: GI50) was 1.94 µM. For the same compound, the CC50 (BT-549 [23]; [26]) was 8.53 µM, the TGI (BT-549 [23]; read-out: TGI) was 4.06 µM and the GI50 (BT-549 [23]; read-out: pGI50 (converted)) was 1.95 µM. The CC50 (BT-549 [23]; [27]) was 8.51 µM, the TGI (BT-549 [23]; read-out: pTGI (converted)) was 4.07 µM and the growth at 0.01 µM (HOP-62 [24]) was 93%. For the same compound, the GI50 (SK-MEL-2 [25]; read-out: GI50) was 2.2 µM, the CC50 (SK-MEL-2 [25]; [26]) was 8.29 µM and the TGI (SK-MEL-2 [25]; read-out: TGI) was 4.27 µM. For the same compound, the GI50 (SK-MEL-2 [25]; read-out: pGI50 (converted)) was 2.19 µM, the CC50 (SK-MEL-2 [25]; [27]) was 8.32 µM and the TGI (SK-MEL-2 [25]; read-out: pTGI (converted)) was 4.27 µM.
